# pEC50: −log10 of the molar value. Where two headings read alike, the source gives them in different places.
# Key:
# [1] = target: GAL4 DBD-CfEcR(DEF)/VP16AD-MmRXRE (Choristoneura fumiferana, UniProt O77240); experiment: 13B3 Assay (CHO stable cell line, luciferase reporter); details: for 13B3 assay Rel Max FI: maximum fold induction at any concentration relative to that of GS-E ligand, CHO 13B3 cells; for fold induction at 3.3 µM: read-out: Fold Induction, 13B3 Assay, 3.3 uM; for fold induction at 33 µM: read-out: Fold Induction, 13B3 Assay, 33 uM; for Fold Induction, 13B3 Assay, 33 uM: 33 uM ligand; for Fold Induction, 13B3 Assay, 33 uM / Fold Induction, 13B3 Assay, 3.3 uM: RLU ligand treated / RLU DMSO treated cells; for Fold Induction, 13B3 Assay, 3.3 uM: 3.3 uM ligand
# How it was run: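 Ligands dosed at 8 levels from 33 to 0.01 μM (DMSO stocks diluted 300-fold) onto the 13B3 CHO line carrying GAL4-DBD/CfEcR-DEF, VP16/MmRXR-DE and a GAL4-responsive luciferase gene.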
# [2] = target: T1, Bombyx mori EcR (VP16 fusion, CVBE switch construct) (Bombyx mori, UniProt P49881); experiment: Z3 Assay (HEK-293 cells with CVBE and 6XEcRE LacZ, β-galactosidase reporter); details: for fold induction at 3.3 µM: HEK293, read-out: Fold Induction, Z3 Assay, 3.3 uM; for fold induction at 33 µM: HEK293, read-out: Fold Induction, Z3 Assay, 33 uM; for Z3 assay Rel Max FI: maximum fold induction at any concentration relative to that of GS-E ligand; for Fold Induction, Z3 Assay, 33 uM: 33 uM ligand; for Fold Induction, Z3 Assay, 33 uM / Fold Induction, Z3 Assay, 3.3 uM: ligand treated / DMSO treated cells; for Fold Induction, Z3 Assay, 3.3 uM: 3.3 uM ligand
# T1 sequence (P49881 86-606): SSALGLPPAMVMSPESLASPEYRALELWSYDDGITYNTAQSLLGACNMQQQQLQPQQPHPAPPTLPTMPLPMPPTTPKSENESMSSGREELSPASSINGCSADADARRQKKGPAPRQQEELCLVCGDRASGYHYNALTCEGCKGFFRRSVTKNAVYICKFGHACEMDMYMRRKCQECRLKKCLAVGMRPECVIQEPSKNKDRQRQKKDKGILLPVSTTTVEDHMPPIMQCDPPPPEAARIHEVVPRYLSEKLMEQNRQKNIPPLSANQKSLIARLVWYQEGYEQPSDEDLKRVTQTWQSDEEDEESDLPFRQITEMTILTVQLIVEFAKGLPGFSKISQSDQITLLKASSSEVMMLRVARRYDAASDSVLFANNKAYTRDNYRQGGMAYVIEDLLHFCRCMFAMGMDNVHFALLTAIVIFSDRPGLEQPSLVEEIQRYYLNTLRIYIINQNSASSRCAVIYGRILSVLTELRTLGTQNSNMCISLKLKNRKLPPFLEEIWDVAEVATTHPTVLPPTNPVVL
# T1 sequence (P19793 1-462 partner): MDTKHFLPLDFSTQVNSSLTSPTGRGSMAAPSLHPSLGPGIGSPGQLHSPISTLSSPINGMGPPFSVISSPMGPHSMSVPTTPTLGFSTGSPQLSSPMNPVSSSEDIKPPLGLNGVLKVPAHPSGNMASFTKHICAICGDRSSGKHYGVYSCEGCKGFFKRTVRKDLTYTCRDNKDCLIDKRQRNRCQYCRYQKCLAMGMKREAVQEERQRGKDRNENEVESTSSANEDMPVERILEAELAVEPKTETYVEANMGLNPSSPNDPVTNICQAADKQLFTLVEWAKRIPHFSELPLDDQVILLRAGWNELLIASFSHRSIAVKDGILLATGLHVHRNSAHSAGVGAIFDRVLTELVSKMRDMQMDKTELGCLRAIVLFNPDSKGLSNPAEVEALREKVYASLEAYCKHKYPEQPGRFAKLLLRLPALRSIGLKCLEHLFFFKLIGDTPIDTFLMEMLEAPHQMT
# [3] = read-out: Z3 assay EC50, HEK-293 Z3 cells, β-galactosidase reporter, average of two wells
# [4] = read-out: 13B3 EC50, CHO 13B3 stable cell line, luciferase reporter, 48 h, average of two wells
Structure (SMILES),pEC50 [1],13B3 assay Rel Max FI [1],fold induction at 3.3 µM [1],fold induction at 33 µM [1],pEC50 [2],fold induction at 3.3 µM [2],fold induction at 33 µM [2],Z3 assay Rel Max FI ([2]; HEK-293 Z3 cells),"Fold Induction, 13B3 Assay, 33 uM ([1]; average of two wells)","Fold Induction, Z3 Assay, 33 uM ([2]; average of two wells)","pEC50 [2, 3]","Fold Induction, 13B3 Assay, 3.3 uM ([1]; average of two wells)","pEC50 [1, 4]","Fold Induction, Z3 Assay, 3.3 uM ([2]; average of two wells)"
"COc1cc(C(=O)N(NC(=O)c2ccc3c(c2C)OCCO3)C(C)(C)C#N)cc(OC)c1C [RG-115092, N-(5-methyl-1,4-benzodioxan-6-carbonyl)-N′-(2-cyano-2-propyl)-N′-(3,5-dimethoxy-4-methylbenzoyl)hydrazine]",6.74,1.176,2320,2410,7.43,351,302,0.917,,,,,,
CCc1c(C(=O)NN(C(=O)c2ccccc2)C(C)(C)C)ccc2c1OCOC2 [RG-115046],,,,,,,,,1076,754,5.45,,,
CCc1c(C(=O)NN(C(=O)c2ccc(Cl)cc2F)C(C)(C)C)ccc2c1OCCO2 [RG-115514],,0.550,,,,,,0.970,515,658,7.25,4009,6.27,383
CC(=O)c1ccc(C(=O)NN(C(=O)c2cc(C(=O)O)cc(C(=O)O)c2)C(C)(C)C)cc1 [RG-100150],,,,,,,,,1,1,,,,
CCc1c(OC)cccc1C(=O)NN(C(=O)c1cc(C)ccc1[N+](=O)[O-])C(C)(C)C [RG-115162],,0.630,,,,,,0.988,320,772,7.16,755,6.09,334
"COc1cc(C(=O)N(NC(=O)c2ccc3c(c2C)OCCO3)C(C)(C)C)cc(OC)c1C [RG-115637, 5-Methyl-2,3-dihydro-benzo[1,4]dioxine-6-carboxylic acid N′-tert-butyl-N′-(3,5-dimethoxy-4-methyl-benzoyl)-hydrazide]",7.06,1.002,1110,636,7.74,211,,0.947,,,,,,
CCc1c(OC)cccc1C(=O)NN(C(=O)c1cc(C)cc(C)c1)C(C)(C)CO [RG-115143],,0.651,,,,,,0.844,2032,1045,5.13,1,< 4.30,111
"CCC(N(NC(=O)c1cccc(C)c1C)C(=O)c1cc(C)cc(C)c1)C(C)(C)C (centres unmarked) [RG-103309, 3,5-dimethyl-benzoic acid N′-(2,3-dimethyl-benzoyl)-N-(1-ethyl-2,2-dimethyl-propyl)-hydrazide]",6.84,1.486,924,95,7.11,1160,591,0.950,,,,,,
"CCc1c(OC)cccc1C(=O)NN(C(=O)c1cc(C)cc(C)c1)C(C)(C)C=O [RG-115407, 2-ethyl-3-methoxy-benzoic acid N′-(3,5-dimethyl-benzoyl)-N′-(1,1-dimethyl-2-oxo-ethyl)-hydrazide]",5.15,1.048,2480,2610,6.46,391,879,0.906,,,,,,
CCc1c(C(=O)NN(C(=O)c2cccc(OC)c2)C(C)(C)C)ccc2c1OCCO2 [RG-100691],,,,,,,,0.945,643,565,6.59,,,843
Cc1c(C(=O)NN(C(=O)c2cc(F)c(F)cc2F)C(C)(C)C)ccc2c1CCCO2 [RG-115229],,0.418,,,,,,,709,1032,6.37,599,5.65,
"CCc1c(OC)cccc1C(=O)NN(C(=O)c1cc(C)cc(C=NNC(=O)C(N)=O)c1)C(C)(C)C [RG-115613, oxamic hydrazone of N-(3-formyl-5-methyl-benzoyl)-N-tert-butyl-N′-(2-ethyl-3-methoxy-benzoyl) hydrazide]",,0.734,,,,,,0.964,1726,1469,6.23,180,5.23,991
Cc1c(C(=O)NN(C(=O)c2cc(F)cc(F)c2)C(C)(C)C)ccc2c1CCCO2 [RG-115207],,0.707,,,,,,0.923,7959,508,6.59,7260,6.21,354
CC(O)c1ccc(C(=O)NN(C(=O)c2cc(F)cc(F)c2)C(C)(C)C)cc1 (centres unmarked) [RG-100342],,,,,,,,,611,427,4.99,,,
CC(C)(C)N(NC(=O)c1ccc(Cl)cc1)C(=O)c1ccccc1 [RG-100864],5.94,,318,187,5.65,63,840,,,,,,,
Cc1c(C(=O)NN(C(=O)c2cccc(F)c2)C(C)(C)C)ccc2c1CCCO2 [RG-115278],,0.823,,,,,,0.893,1050,1225,6.59,1950,6.20,158
CCc1c(C(=O)NN(C(=O)c2cc(Cl)nc(Cl)c2)C(C)(C)C)ccc2c1OCCO2 [RG-115297],,0.737,,,,,,0.872,304,604,7.18,1364,5.87,443
COc1cccc(C(=O)NN(C(=O)c2cc(C)ccc2[N+](=O)[O-])C(C)(C)C)c1C [RG-100569],,0.773,,,,,,0.835,329,457,7.01,1710,6.73,754
"COc1cc(C(=O)N(NC(=O)c2ccc3c(c2C)OCCO3)C(C)(C)C)cc(OC)c1O [RG-115009, 4-Hydroxy-3,5-dimethoxy-benzoic acid N-tert-butyl-N′-(5-methyl-2,3-dihydro-benzo[1,4]dioxine-6-carbonyl)-hydrazide]",4.72,0.917,19,2550,5.48,35,472,0.916,,,,,,
